Data from US8835507B2, “Adamantane derivatives possessing anti-viral and anti-microbial activity” (priority 2012, dated 2014).
Values after ≈ are worked out from the molar mass of the structure shown. Like-named read-outs stand apart in the source and are kept apart here.

Columns and labels:
[1] = test system: Vaccinia virus, WR strain; settings: for TC50: toxic concentration in the Vaccinia virus screen; for activity against vaccinia virus (in words): summary of Table 1
[2] = test system: Vaccinia virus, WR strain; assay: microbe, parasite or virus in culture; settings: Orthopoxvirus vaccinia
anthrax = assay: organism not typed; assay type: cell-based
E. coli = assay: microbe, parasite or virus in culture; assay type: cell-based; settings: Escherichia coli
plague = assay: organism not typed; assay type: cell-based
B. anthracis (Ames) = assay: microbe, parasite or virus in culture; assay type: cell-based; settings: Bacillus anthracis
Y. pestis (CO92) = assay: microbe, parasite or virus in culture; assay type: cell-based; settings: Yersinia pestis
B. mallei (ATCC 23344) = assay: microbe, parasite or virus in culture; assay type: cell-based; settings: Burkholderia mallei, ATCC23344
[3] = test system: B. pseudomallei (ATCC 23342); assay: microbe, parasite or virus in culture; assay type: cell-based; settings: Burkholderia pseudomallei, ATCC23342
F. tularensis (SCHU4) = assay: microbe, parasite or virus in culture; assay type: cell-based; settings: Francisella tularensis
S. aureus (ATCC 29213) = assay: Test C: MIC against S. aureus (ATCC 29213); assay type: cell-based; settings: Staphylococcus aureus, ATCC29213, CAMHB + IV
E. coli (ATCC 25922) = assay: Test C: MIC against E. coli (ATCC 25922); assay type: cell-based
[4] = test system: P. aeruginosa (ATCC 27853); assay: Test C: MIC against P. aeruginosa (ATCC 27853); assay type: cell-based; settings: Pseudomonas aeruginosa, ATCC27853, P. aeruginosa (ATCC 27853)

SMILES | Comments (activity rating) ([1]; Vaccinia virus, WR strain) | TC50 [1] [mg/L] | activity against vaccinia virus (in words) [1] | IC50 (Tacaribe virus) [mg/L] | IC50 (Pichinde virus) [mg/L] | IC50 [2] [mg/L] | IC50 ([1]; Vaccinia virus, WR strain) [mg/L] | MIC (anthrax) [mg/L] | MIC (E. coli) [mg/L] | MIC (plague) [mg/L] | MIC (B. anthracis (Ames)) [mg/L] | MIC (Y. pestis (CO92)) [mg/L] | MIC (B. mallei (ATCC 23344)) [mg/L] | MIC [3] [mg/L] | MIC (F. tularensis (SCHU4)) [mg/L] | MIC (S. aureus (ATCC 29213)) [mg/L] | MIC (E. coli (ATCC 25922); CAMHB + IV) | MIC (E. coli (ATCC 25922); Escherichia coli, ATCC25922, CAMHB, read-out: MIC) [mg/L] | MIC ([4]; CAMHB) [mg/L] | MIC ([4]; CAMHB + IV) [mg/L]
Nc1ccn(C[C@@H](CO)OCP(=O)(O)O)c(=O)n1 [Cidofir, reference compound] | Inactive | >100 | – | – | – | – | – | – | – | – | – | – | – | – | – | – | – | – | – | –
ClN(CCN(Cl)C12CC3CC(CC(C3)C1)C2)C12CC3CC(CC(C3)C1)C2 [Compound 7] | Moderate | 63.40 (≈ 160 µM) | moderate to high activity | 17 (≈ 42.8 µM) | 3.4 (≈ 8.55 µM) | 6.37 (≈ 16 µM) | – | – | – | – | – | – | – | – | – | – | – | – | – | –
NC(=O)c1ncn([C@@H]2O[C@H](CO)[C@@H](O)[C@H]2O)n1 [Ribivirin, reference compound] | Moderate | >100 | – | – | – | – | 27.90 (≈ 114 µM) | – | – | – | – | – | – | – | – | – | – | – | – | –
C(CNC12CC3CC(CC(C3)C1)C2)NC12CC3CC(CC(C3)C1)C2 [Compound 6] | Active | 5.58 (≈ 17 µM) | moderate to high activity | 6 (≈ 18.3 µM) | 11 (≈ 33.5 µM) | 0.32 (≈ 0.974 µM) | – | 1 to 4 (≈ 3.04 to 12.2 µM) | 4 to 8 (≈ 12.2 to 24.3 µM) | 4 (≈ 12.2 µM) | 0.25 (≈ 0.761 µM) | ≤ 0.06 | 2 (≈ 6.09 µM) | 2 (≈ 6.09 µM) | ≤ 0.06 | 1 | ≦0.06 ug/ml | ≤ 0.06 | 2 (≈ 6.09 µM) | 4
